# Measurements taken from article PMC4657098, “A Review of the Updated Pharmacophore for the Alpha 5 GABA(A) Benzodiazepine Receptor Model” (International Journal of Medicinal Chemistry, 2015).
# Columns and labels:
# [1] = target: T1, SERT (Homo sapiens, UniProt P31645); assay: PDSP receptor binding, SERT; conditions: PDSP primary screen at 10 µM
# T1 construct: purchased NIMH PDSP (Psychoactive Drug Screening Program, Roth lab, Case Western Reserve)
# [2] = test system: GABA(A) receptor subtypes; conditions: up to a concentration of 1 μM; any one of the subtypes tested; cited from earlier work
# [3] = target: α2β3γ2 GABAA/BzR (Homo sapiens, UniProt P18507+P47869); assay: Competition binding to HEK cell membranes, α2β3γ2; design: expressed in transfected cells; conditions: Ki α2
# [4] = target: α6β3γ2 BzR/GABA(A); conditions: Figure 1; LTK cells; read-out: Binding affinity α6; cited from earlier work
# [5] = target: T2, α5β3γ2 GABAA receptor (Homo sapiens, UniProt P18507+P31644); assay: Oocyte electrophysiology, α5β3γ2; type: cell-based
# T2 construct: expressed in transfected cells; host or cells: Xenopus oocytes
# [6] = target: T3, CB1 (Homo sapiens, UniProt P21554); assay: PDSP receptor binding, CB1; conditions: PDSP primary screen at 10 µM
# T3 construct: purchased NIMH PDSP (Psychoactive Drug Screening Program, Roth lab, Case Western Reserve)
# [7] = target: T4, M3 (Homo sapiens, UniProt P20309); assay: PDSP receptor binding, M3; conditions: PDSP primary screen at 10 µM
# T4 construct: purchased NIMH PDSP (Psychoactive Drug Screening Program, Roth lab, Case Western Reserve)
# [8] = target: T5, H3 (Homo sapiens, UniProt Q9Y5N1); assay: PDSP receptor binding, H3; conditions: PDSP primary screen at 10 µM
# T5 construct: purchased NIMH PDSP (Psychoactive Drug Screening Program, Roth lab, Case Western Reserve)
# [9] = target: α6β3γ2 GABAA/BzR (Homo sapiens, UniProt P18507+Q16445); assay: Competition binding to HEK cell membranes, α6β3γ2; design: expressed in transfected cells; conditions: Ki α6
# [10] = target: T6, 5ht5a (Homo sapiens, UniProt P47898); assay: PDSP receptor binding, 5ht5a; conditions: PDSP primary screen at 10 µM
# T6 construct: purchased NIMH PDSP (Psychoactive Drug Screening Program, Roth lab, Case Western Reserve)
# [11] = target: α1β3γ2 GABAA/BzR (Homo sapiens, UniProt P14867+P18507); assay: Competition binding to HEK cell membranes, α1β3γ2; design: expressed in transfected cells; conditions: Ki α1
# [12] = target: T7, D1 (Homo sapiens, UniProt P21728); assay: PDSP receptor binding, D1; conditions: PDSP primary screen at 10 µM
# T7 construct: purchased NIMH PDSP (Psychoactive Drug Screening Program, Roth lab, Case Western Reserve)
# [13] = target: T8, H2 (Homo sapiens, UniProt P25021); assay: PDSP receptor binding, H2; conditions: PDSP primary screen at 10 µM
# T8 construct: purchased NIMH PDSP (Psychoactive Drug Screening Program, Roth lab, Case Western Reserve)
# [14] = target: T9, σ1 (Homo sapiens, UniProt Q99720); assay: PDSP receptor binding, σ1; conditions: PDSP primary screen at 10 µM
# T9 construct: purchased NIMH PDSP (Psychoactive Drug Screening Program, Roth lab, Case Western Reserve)
# [15] = target: T10, Beta2 (Homo sapiens, UniProt P07550); assay: PDSP receptor binding, Beta2; conditions: PDSP primary screen at 10 µM
# T10 construct: purchased NIMH PDSP (Psychoactive Drug Screening Program, Roth lab, Case Western Reserve)
# [16] = target: T11, 5ht1d (Homo sapiens, UniProt P28221); assay: PDSP receptor binding, 5ht1d; conditions: PDSP primary screen at 10 µM
# T11 construct: purchased NIMH PDSP (Psychoactive Drug Screening Program, Roth lab, Case Western Reserve)
# [17] = target: T12, D5 (Homo sapiens, UniProt P21918); assay: PDSP receptor binding, D5; conditions: PDSP primary screen at 10 µM
# T12 construct: purchased NIMH PDSP (Psychoactive Drug Screening Program, Roth lab, Case Western Reserve)
# [18] = target: T13, M5 (Homo sapiens, UniProt P08912); assay: PDSP receptor binding, M5; conditions: PDSP primary screen at 10 µM
# T13 construct: purchased NIMH PDSP (Psychoactive Drug Screening Program, Roth lab, Case Western Reserve)
# [19] = test system: α2β3γ2 GABAA receptor; conditions: cited from earlier work
# [20] = target: α2β3γ2 BzR/GABA(A); conditions: Figure 1; LTK cells; read-out: Binding affinity α2; cited from earlier work
# [21] = test system: σ2; assay: PDSP receptor binding, σ2; conditions: PDSP primary screen at 10 µM
# [22] = test system: α3β3γ2 GABAA receptor; conditions: cited from earlier work
# [23] = target: T14, 5ht2b (Homo sapiens, UniProt P41595); assay: PDSP receptor binding, 5ht2b; conditions: PDSP primary screen at 10 µM
# T14 construct: purchased NIMH PDSP (Psychoactive Drug Screening Program, Roth lab, Case Western Reserve)
# [24] = target: α4β3γ2 BzR/GABA(A); conditions: Figure 1; LTK cells; read-out: Binding affinity α4; cited from earlier work
# [25] = target: T15, M4 (Homo sapiens, UniProt P08173); assay: PDSP receptor binding, M4; conditions: PDSP primary screen at 10 µM
# T15 construct: purchased NIMH PDSP (Psychoactive Drug Screening Program, Roth lab, Case Western Reserve)
# [26] = target: T16, α2A (Homo sapiens, UniProt P08913); assay: PDSP receptor binding, α2A; conditions: PDSP primary screen at 10 µM
# T16 construct: purchased NIMH PDSP (Psychoactive Drug Screening Program, Roth lab, Case Western Reserve)
# [27] = target: T17, 5ht7 (Homo sapiens, UniProt P34969); assay: PDSP receptor binding, 5ht7; conditions: PDSP primary screen at 10 µM
# T17 construct: purchased NIMH PDSP (Psychoactive Drug Screening Program, Roth lab, Case Western Reserve)
# [28] = test system: other receptors (PDSP panel); assay: Full PDSP panel receptor binding; conditions: NIMH PDSP, Case Western Reserve
# [29] = target: T18, D4 (Homo sapiens, UniProt P21917); assay: PDSP receptor binding, D4; conditions: PDSP primary screen at 10 µM
# T18 construct: purchased NIMH PDSP (Psychoactive Drug Screening Program, Roth lab, Case Western Reserve)
# [30] = target: T19, 5ht3 (Homo sapiens, UniProt P46098); assay: PDSP receptor binding, 5ht3; conditions: PDSP primary screen at 10 µM
# T19 construct: purchased NIMH PDSP (Psychoactive Drug Screening Program, Roth lab, Case Western Reserve)
# [31] = target: T20, 5ht2c (Homo sapiens, UniProt P28335); assay: PDSP receptor binding, 5ht2c; conditions: PDSP primary screen at 10 µM
# T20 construct: purchased NIMH PDSP (Psychoactive Drug Screening Program, Roth lab, Case Western Reserve)
# [32] = target: T21, DAT (Homo sapiens, UniProt Q01959); assay: PDSP receptor binding, DAT; conditions: PDSP primary screen at 10 µM
# T21 construct: purchased NIMH PDSP (Psychoactive Drug Screening Program, Roth lab, Case Western Reserve)
# [33] = test system: Bz BS of GABA(A) receptors; conditions: Supplement Table 1; cited from earlier work
# [34] = target: T22, CB2 (Homo sapiens, UniProt P34972); assay: PDSP receptor binding, CB2; conditions: PDSP primary screen at 10 µM
# T22 construct: purchased NIMH PDSP (Psychoactive Drug Screening Program, Roth lab, Case Western Reserve)
# [35] = target: α1β3γ2 BzR/GABA(A); conditions: Figure 1; LTK cells; read-out: Binding affinity α1; cited from earlier work
# [36] = target: T23, α1A (Homo sapiens, UniProt P35348); assay: PDSP receptor binding, α1A; conditions: PDSP primary screen at 10 µM
# T23 construct: purchased NIMH PDSP (Psychoactive Drug Screening Program, Roth lab, Case Western Reserve)
# [37] = test system: MDR; assay: PDSP receptor binding, MDR; conditions: PDSP primary screen at 10 µM
# [38] = target: T24, M1 (Homo sapiens, UniProt P11229); assay: PDSP receptor binding, M1; conditions: PDSP primary screen at 10 µM
# T24 construct: purchased NIMH PDSP (Psychoactive Drug Screening Program, Roth lab, Case Western Reserve)
# [39] = target: α3β3γ2 BzR/GABA(A); conditions: Figure 1; LTK cells; read-out: Binding affinity α3; cited from earlier work
# [40] = target: T25, 5ht2a (Homo sapiens, UniProt P28223); assay: PDSP receptor binding, 5ht2a; conditions: PDSP primary screen at 10 µM
# T25 construct: purchased NIMH PDSP (Psychoactive Drug Screening Program, Roth lab, Case Western Reserve)
# [41] = target: T26, NET (Homo sapiens, UniProt P23975); assay: PDSP receptor binding, NET; conditions: PDSP primary screen at 10 µM
# T26 construct: purchased NIMH PDSP (Psychoactive Drug Screening Program, Roth lab, Case Western Reserve)
# [42] = target: T27, H1 (Homo sapiens, UniProt P35367); assay: PDSP receptor binding, H1; conditions: PDSP primary screen at 10 µM
# T27 construct: purchased NIMH PDSP (Psychoactive Drug Screening Program, Roth lab, Case Western Reserve)
smiles,measurement,setting,value
"C#Cc1ccc2c(c1)C(=O)N(C)Cc1c(C(=O)OCCCOC(=O)c3ncn4c3CN(C)C(=O)c3cc(C#C)ccc3-4)ncn1-2 [XLi-093 (4), 1,3-Bis(8-acetyleno-5,6-dihydro-5-methyl-6-oxo-4H-imidazo[1,5a][1,4]benzodiazepine-3-carboxy) propyl diester]",SERT binding,[1],∗ (“∗” indicates “primary missed” (<50% inhibition at 10 µM))
same,triggering of chloride flux,[2],did not trigger chloride flux
same,Ki,[3],> 1000 nM
same,Ki,[4],> 2000 nM
same,efficacy type at the α5 subtype,[5],antagonist
same,CB1 binding,[6],∗ (“∗” indicates “primary missed” (<50% inhibition at 10 µM))
same,M3 binding,[7],∗ (“∗” indicates “primary missed” (<50% inhibition at 10 µM))
same,H3 binding,[8],∗ (“∗” indicates “primary missed” (<50% inhibition at 10 µM))
same,Ki,[9],> 2000 nM
same,5ht5a binding,[10],∗ (“∗” indicates “primary missed” (<50% inhibition at 10 µM))
same,Ki,[11],> 1000 nM
same,D1 binding,[12],∗ (“∗” indicates “primary missed” (<50% inhibition at 10 µM))
same,H2 binding,[13],∗ (“∗” indicates “primary missed” (<50% inhibition at 10 µM))
same,σ1 binding,[14],∗ (“∗” indicates “primary missed” (<50% inhibition at 10 µM))
same,Beta2 binding,[15],∗ (“∗” indicates “primary missed” (<50% inhibition at 10 µM))
same,5ht1d binding,[16],∗ (“∗” indicates “primary missed” (<50% inhibition at 10 µM))
same,D5 binding,[17],∗ (“∗” indicates “primary missed” (<50% inhibition at 10 µM))
same,M5 binding,[18],∗ (“∗” indicates “primary missed” (<50% inhibition at 10 µM))
same,"modulation of GABA induced chloride flux, α2β3γ2",[19]; at 1 μM,did not modulate
same,"influence on benzodiazepine (Valium) stimulation of GABA-induced current, α2β3γ2",[19],barely influenced
same,Ki,[20],> 1000 nM
same,σ2 binding,[21],∗ (“∗” indicates “primary missed” (<50% inhibition at 10 µM))
same,"modulation of GABA induced chloride flux, α3β3γ2",[22]; at 1 μM,did not modulate
same,"influence on benzodiazepine (Valium) stimulation of GABA-induced current, α3β3γ2",[22],barely influenced
same,5ht2b binding,[23],∗ (“∗” indicates “primary missed” (<50% inhibition at 10 µM))
same,Ki,[24],1550 nM
same,M4 binding,[25],∗ (“∗” indicates “primary missed” (<50% inhibition at 10 µM))
same,α2A binding,[26],∗ (“∗” indicates “primary missed” (<50% inhibition at 10 µM))
same,5ht7 binding,[27],∗ (“∗” indicates “primary missed” (<50% inhibition at 10 µM))
same,full panel receptor binding,[28],do not bind to other receptors at levels of concern
same,D4 binding,[29],∗ (“∗” indicates “primary missed” (<50% inhibition at 10 µM))
same,5ht3 binding,[30],∗ (“∗” indicates “primary missed” (<50% inhibition at 10 µM))
same,5ht2c binding,[31],∗ (“∗” indicates “primary missed” (<50% inhibition at 10 µM))
same,DAT binding,[32],∗ (“∗” indicates “primary missed” (<50% inhibition at 10 µM))
same,modulation,[33],antagonist
same,CB2 binding,[34],∗ (“∗” indicates “primary missed” (<50% inhibition at 10 µM))
same,Ki,[35],> 1000 nM
same,α1A binding,[36],∗ (“∗” indicates “primary missed” (<50% inhibition at 10 µM))
same,MDR binding,[37],∗ (“∗” indicates “primary missed” (<50% inhibition at 10 µM))
same,M1 binding,[38],∗ (“∗” indicates “primary missed” (<50% inhibition at 10 µM))
same,Ki,[39],858 nM
same,5ht2a binding,[40],∗ (“∗” indicates “primary missed” (<50% inhibition at 10 µM))
same,NET binding,[41],∗ (“∗” indicates “primary missed” (<50% inhibition at 10 µM))
same,H1 binding,[42],∗ (“∗” indicates “primary missed” (<50% inhibition at 10 µM))
